Assay results as given in paper PMC5338263, “GS-5734 and its parent nucleoside analog inhibit Filo-, Pneumo-, and Paramyxoviruses” (Scientific Reports, 2017).
Entries after “also recorded” stand apart in the source; their conditions may differ. Where two headings read alike, the source gives them in different places.

How the values were obtained:
EBOV Rec. Mayinga-Gluc = assay: microbe, parasite or virus in culture; settings: Zaire ebolavirus, Huh-7
NiV M-1999 (Nipah virus) = assay: in vitro; settings: human
[1] = system: NiV Rec. M-GFP2AM (Nipah virus); assay: in vitro; settings: human
NiV Rec. M-GFP2AM [2] = assay: microbe, parasite or virus in culture; settings: Henipavirus nipahense, HeLa
[3] = system: hPIV3 Rec. JS-GFP (parainfluenza type 3 virus); assay: in vitro; settings: human
VSV New Jersey = assay: microbe, parasite or virus in culture; format: cell-based, Vesicular Stomatitis virus
HCV = settings: cited from earlier work
DenV = settings: cited from earlier work
RVFV Rec. ZH501-GFP = assay: microbe, parasite or virus in culture; format: cell-based, Rift Valley Fever virus
[4] = system: reporter and wild-type filo-, pneumo-, and paramyxoviruses
KFDV P9605 = assay: microbe, parasite or virus in culture; settings: Kyasanur Forest disease virus, A549
MuV IA 2006 = assay: microbe, parasite or virus in culture; settings: Mumps orthorubulavirus, HeLa
OHFV Bogoluvovska = assay: microbe, parasite or virus in culture; settings: Omsk hemorrhagic fever virus, A549
[5] = system: MV Rec. rMV^EZGFP(3) (Measles virus); assay: in vitro; settings: human
NiV M-1999 [6] = system: NiV M-1999
[7] = system: EBOV Makona (Ebola virus); assay: in vitro; settings: human
NiV B-2004 = assay: microbe, parasite or virus in culture; settings: Henipavirus nipahense
NiV Rec. M-GFP2AM [8] = system: NiV Rec. M-GFP2AM
AHFV 200300001 = assay: organism not typed; settings: A549
MARV Rec. Bat371-GFP [9] = assay: organism not typed; settings: Huh-7
NiV Rec. M-Luc2AM [10] = assay: microbe, parasite or virus in culture; settings: Henipavirus nipahense, HeLa
hPIV3 Rec. JS-GFP [11] = system: hPIV3 Rec. JS-GFP
[12] = Cell viability assay (CellTiter-Glo 2.0), HeLa; settings: human, uninfected HeLa cells
MARV Rec. Bat371-GFP [13] = system: MARV Rec. Bat371-GFP
NiV M-1999 [14] = assay: microbe, parasite or virus in culture; settings: Henipavirus nipahense
TBEV Hypr = assay: microbe, parasite or virus in culture; settings: Tick-borne encephalitis virus, A549
[15] = system: NiV Rec. M-Luc2AM (Nipah virus); assay: in vitro; settings: human
RSV Rec. rgRSV224 (A2) = assay: microbe, parasite or virus in culture; settings: human respiratory syncytial virus, HeLa
EBOV Makona [16] = system: EBOV Makona
[17] = system: MARV Rec. Bat371-GFP (Marburg virus); assay: in vitro; settings: human
[18] = system: MuV IA 2006 (Mumps virus); assay: in vitro; settings: human
[19] = system: EBOV Rec. Mayinga-GFP (Ebola virus); assay: in vitro; settings: human
[20] = system: RSV Rec. rgRSV224 (A2) (respiratory syncytial virus); assay: in vitro; settings: human
LASV Josiah = assay: microbe, parasite or virus in culture; settings: Mammarenavirus lassaense, Huh-7
hPIV3 Rec. JS-GFP [21] = assay: microbe, parasite or virus in culture; settings: Human respirovirus 3, HeLa
[22] = system: EBOV Rec. Mayinga-Gluc (Ebola virus); assay: in vitro; settings: human
[23] = system: EBOV Rec. Makona-ZSG (Ebola virus); assay: in vitro; settings: human
NiV Rec. M-Luc2AM [24] = system: NiV Rec. M-Luc2AM
EBOV Makona [25] = assay: microbe, parasite or virus in culture; settings: Zaire ebolavirus
[26] = Vesicular stomatitis virus, HeLa
[27] = not tested in this paper, no reference given

N#C[C@@]1(c2ccc3c(N)ncnn23)O[C@H](CO)[C@@H](O)[C@H]1O [Nuc]
EC50 (EBOV Rec. Mayinga-Gluc): 3100 nM | EC90 (EBOV Rec. Mayinga-Gluc): 11 µM | selectivity ratio (NiV M-1999 (Nipah virus)): 102 | selectivity ratio [1]: 22 | EC50 (NiV Rec. M-GFP2AM [2]): 2230 ± 1400 nM | EC90 (NiV Rec. M-GFP2AM [2]): 4000 nM | selectivity ratio [3]: 98 | EC50 (VSV New Jersey): little to no antiviral activity; also recorded: No inhibition | EC50 (VSV New Jersey; [26]): > 50 µM | antiviral activity (active or not) (HCV): active | antiviral activity (active or not) (HCV; listed as GS-441524): shown to have activity | EC50 (MV Rec. rMV^EZGFP(3)): 1000 nM | antiviral activity (active or not) (DenV): active | antiviral activity (active or not) (DenV; listed as GS-441524): shown to have activity | EC50 (RVFV Rec. ZH501-GFP): little to no antiviral activity; also recorded: No inhibition | EC50 (RVFV Rec. ZH501-GFP; Rift Valley fever virus, Huh-7): > 50 µM | EC50 lower than the 50% cytotoxic concentrations [4]: at least 16 fold | EC50 (KFDV P9605): 46.3 µM | EC90 (KFDV P9605): > 350 µM | EC50 (MuV IA 2006): 7 to 12 µM | EC90 (MuV IA 2006): 26.3 µM | EC50 (OHFV Bogoluvovska): 50.6 µM | EC90 (OHFV Bogoluvovska): > 350 µM | selectivity ratio [5]: 50 | reduction in virus yield (NiV M-1999 [6]): greater than 5 | selectivity ratio [7]: 50 | EC50 (NiV B-2004): 2460 nM | EC50 (NiV Rec. M-GFP2AM [8]): 2200 nM | EC50 (AHFV 200300001): 49.9 ± 2.06 µM | EC90 (AHFV 200300001): > 150 µM | EC50 (MARV Rec. Bat371-GFP [9]): 1860 ± 130 nM | EC90 (MARV Rec. Bat371-GFP [9]): 4600 nM | EC50 (NiV Rec. M-Luc2AM [10]): 1570 ± 780 nM | EC90 (NiV Rec. M-Luc2AM [10]): 5700 nM | EC50 (hPIV3 Rec. JS-GFP [11]): 510 nM | CC50 at 72 h [12]: > 50 µM | EC50 (MARV Rec. Bat371-GFP [13]): 1900 nM | EC90 (NiV M-1999 [14]; HeLa): 1400 nM | EC50 (TBEV Hypr): 51.2 µM | EC90 (TBEV Hypr): > 150 µM | selectivity ratio [15]: 33 | EC50 (RSV Rec. rgRSV224 (A2)): 630 nM | EC90 (RSV Rec. rgRSV224 (A2)): 2200 nM | EC50 (EBOV Rec. Makona-ZSG): 1300 nM | EC50 (EBOV Makona [16]): 1000 nM | reduction in virus yield (EBOV Makona [16]): greater than 5 | selectivity ratio [17]: 26 | selectivity ratio [18]: 5 | selectivity ratio [19]: 31 | selectivity ratio [20]: 79 | EC50 (LASV Josiah): > 50 µM | EC50 (hPIV3 Rec. JS-GFP [21]): 520 ± 80 nM | EC90 (hPIV3 Rec. JS-GFP [21]): 1000 nM | selectivity ratio [22]: 16 | selectivity ratio [23]: 38 | EC50 (NiV Rec. M-Luc2AM [24]): 1500 nM | EC50 (EBOV Makona [25]; Huh-7): 1020 nM | EC90 (EBOV Makona [25]; Huh-7): 2500 nM

CCC(CC)COC(=O)[C@H](C)N[P@](=O)(OC[C@H]1O[C@@](C#N)(c2ccc3c(N)ncnn23)[C@H](O)[C@@H]1O)Oc1ccccc1 [GS-5734]
EC50 (EBOV Rec. Mayinga-Gluc): 20.7 nM | EC90 (EBOV Rec. Mayinga-Gluc): 0.053 µM | selectivity ratio (NiV M-1999 (Nipah virus)): 180 | selectivity ratio [1]: 286 | EC50 (NiV Rec. M-GFP2AM [2]): 28.7 nM | EC90 (NiV Rec. M-GFP2AM [2]): 53 nM | selectivity ratio [3]: 461 | EC50 (VSV New Jersey): not inhibited; also recorded: No inhibition | EC50 (VSV New Jersey; [26]): > 10 µM | inhibition of virus (HCV; [27]): inhibited | EC50 (MV Rec. rMV^EZGFP(3)): 37 nM | inhibition of virus (DenV; [27]): inhibited | EC50 (RVFV Rec. ZH501-GFP): minimal to no antiviral activity; also recorded: No inhibition | EC50 (RVFV Rec. ZH501-GFP; Rift Valley fever virus, Huh-7): > 10 µM | EC50 lower than the 50% cytotoxic concentrations [4]: ≥ 150 fold | higher antiviral potency relative to Nuc [4]: 10 to 100 fold | EC90 (KFDV P9605): 3.4 µM | EC50 (MuV IA 2006): 0.79 µM | EC90 (MuV IA 2006): 3.4 µM | EC90 (OHFV Bogoluvovska): 3.9 µM | selectivity ratio [5]: 224 | reduction in virus yield (NiV M-1999 [6]): greater than 4 | selectivity ratio [7]: 666 | EC50 (NiV B-2004): 32.4 ± 2.7 nM | EC90 (NiV B-2004): 106 nM | EC50 (NiV Rec. M-GFP2AM [8]): 29 nM | EC50 (AHFV 200300001): 4.15 ± 0.48 µM | EC90 (AHFV 200300001): 17.6 µM | EC50 (MARV Rec. Bat371-GFP [9]): 13.9 ± 0.3 nM | EC90 (MARV Rec. Bat371-GFP [9]): 47 nM | EC50 (NiV Rec. M-Luc2AM [10]): 44.9 ± 1.8 nM | EC90 (NiV Rec. M-Luc2AM [10]): 126 nM | EC50 (hPIV3 Rec. JS-GFP [11]): 18 nM | CC50 at 72 h [12]: 8.3 µM | EC50 (MARV Rec. Bat371-GFP [13]): 14 nM | EC50 (NiV M-1999 [14]): 47 nM | EC90 (NiV M-1999 [14]): 83 nM | EC90 (TBEV Hypr): 3.5 µM | selectivity ratio [15]: 184 | EC50 (RSV Rec. rgRSV224 (A2)): 21.1 ± 1.1 nM | EC90 (RSV Rec. rgRSV224 (A2)): 59 nM | EC50 (EBOV Rec. Makona-ZSG): 14 nM | EC50 (EBOV Makona [16]): 3 nM | reduction in virus yield (EBOV Makona [16]): greater than 4 | selectivity ratio [17]: 714 | selectivity ratio [18]: 10 | selectivity ratio [19]: 151 | selectivity ratio [20]: 395 | EC50 (LASV Josiah): 4.49 ± 0.48 µM | EC90 (LASV Josiah): 5.1 µM | EC50 (hPIV3 Rec. JS-GFP [21]): 17.7 ± 3.7 nM | EC90 (hPIV3 Rec. JS-GFP [21]): 350 nM | selectivity ratio [22]: 476 | selectivity ratio [23]: 714 | EC50 (NiV Rec. M-Luc2AM [24]): 45 nM | EC50 (EBOV Makona [25]; Macrophage): 3.4 nM | EC90 (EBOV Makona [25]; Macrophage): 19 nM
